The values that follow come from patent US12115226B2, “Linker containing arylnitro, antibody-drug conjugate containing linker and use of linker” (Academy of Military Medical Sciences, priority 2018, dated 2024).

pIC50: −log10 of the molar value. Square brackets hold non-standard residues; d marks the D form. Peptide text beside a SMILES is read from it. * marks the point of attachment. Dolaproine = CO[C@@H]([C@@H]1CCCN1)[C@@H](C)C(=O)O; Dil = CC[C@H](C)[C@H](NC)[C@@H](CC(=O)O)OC; X1 = C[C@@H](N*)[C@@H](O)c1ccccc1; NMeV = CN[C@H](C(=O)O)C(C)C

The test system of series [1] is NCI-N87 human gastric cancer cell xenograft. In words: Efficacy in nude mice xenograft model of NCI-N87 human gastric cancer cell. (A xenograft is tissue or cells of one species grown in another, often human tumour cells in immunodeficient mice.)
Experimental: The tested drug was dissolved in physiological saline and administered via tail vein injection.
The NCI-N87 gastric adenocarcinoma cells (purchased from ATCC) were cultured with DMEM medium containing inactivated 10% fetal bovine serum, 100 U/mL penicillin, 100 μg/mL streptomycin, and 2 mM glutamine in an incubator at 37° C. and 5% CO2. The initial concentration of the cultured cell was 1×10^6 cells/ml, and the cells were divided into bottles for passage every 3 to 4 days after the cells were full. The cancer cells in the logarithmic growth phase at 5×10^6 cells/0.1 mL were inoculated under skin of right lateral thorax of BALB/c nude mice (female, 6-8 weeks old, 18-22 g, purchased from Beijing Ankai Yibo Biotechnology Co., Ltd.). When the tumor grew to a volume of 150 mm^3, the modeling was successful. Then the administration was started, 6 mice in each dose group were administered at the specified dose once a week, the administration volume was 5 mL/kg, and the administration was performed 4 times in total. The tumor volume was measured twice a week by measurement of the long and short diameters of tumor with vernier caliper. The volume calculation formula was: volume=0.5×long diameter×short diameter^2. When the tumor volume was measured, the mice were weighed at the same time. The relationship between the change of mouse body weight and the time of administration was recorded. […]
Series [2] relates to antigen HER2-positive breast cancer cell line BT-474. In words: Hypoxia-dependent cytotoxicity of ADC-1 (different oxygen environments). The conditions noted are these: for pIC50: Homo sapiens. The method, then:
The tested cell line was antigen HER2-positive breast cancer cell line BT-474. The cell culture process was as described in Example 12, in which the oxygen concentrations in the cell incubator were separately set to 0.1%, 1.0%, 5.0%, 10.0% and 20.0%.

The test system of series [3] is antigen HER2-negative breast cancer cell line MDA-MB-468. Description: In vitro cytotoxicity of ADC (CellTiter Glo), MDA-MB-468. It counts as cell-based. As to conditions: 0.1% O2, 168 hours, ADC DAR about 4. The method, then: (§1) The vial containing the target cells was gently stirred in a 37° C. water bath to be thawed.
(§2) After the content was thawed, the vial was taken out from the water bath and decontaminated by immersion or spraying with 70% ethanol.
(§3) The cells were re-suspended in the culture medium, settled and distributed into a culture flask with an area of 75 cm^2.
(§4) The resulting culture was incubated in a Galaxy® CO2 incubator (48R, #C048312044) with 5% CO2 at 37° C., and the oxygen concentration in the incubator was 0.1%.
(§5) The cells were passaged three times a week at a ratio of 1:4 in a medium containing 10% […] (heat inactivated) and 1% penicillin-streptomycin solution.
(§6) For the passaged cells, the adherent cells were firstly rinsed with trypsin/EDTA solution (3 mL), then trypsin/EDTA (3 mL, T75 flask) was added, and spun to coat the cells evenly. The resulting culture was incubated at 37° C. until the cells were detached. It was observed by microscope to verify that the cells had been detached, then an equal volume of cell culture medium was added to inactivate trypsin, the detached cells were collected, and centrifuged at 200 g for 5 minutes, and then re-suspended in a fresh culture medium. […]
(§7) The cells were harvested and counted to determine the number of cells;
(ATP-based viability assays read luminescence as a measure of living cells.)

Series [4] concerns antigen HER2-positive ovarian cancer cell line SK-OV-3. Description: In vitro cytotoxicity of ADC (CellTiter Glo), SK-OV-3. As to conditions: 0.1% O2, 168 hours, ADC DAR about 4. In kind it is cell-based. The method, then: as §1, §2, §3, §4, §5, §6, §7
In series [5] the test system is antigen HER2-positive breast cancer cell line BT-474. In words: In vitro cytotoxicity of ADC (CellTiter Glo), BT-474. As to conditions: 0.1% O2, 168 hours, ADC DAR about 4. In kind it is cell-based, human. The method, then: as §1, §2, §3, §4, §5, §6, §7
In series [6] the test system is antigen HER2-positive gastric cancer cell line NCI-N87. In words: In vitro cytotoxicity of ADC (CellTiter Glo), NCI-N87. In kind it is cell-based, human. As to conditions: 0.1% O2, 168 hours, ADC DAR about 4. The procedure: as §1, §2, §3, §4, §5, §6, §7
In series [7] the test system is antigen HER2-positive breast cancer cell line HCC1954. In words: In vitro cytotoxicity of ADC (CellTiter Glo), HCC1954. The conditions noted are these: 0.1% O2, 168 hours, ADC DAR about 4. In kind it is cell-based. The procedure:
as §1, §2, §3, §4, §5, §6, §7

Series [8] concerns antigen HER2-weakly positive breast cancer cell line MCF-7. Description: In vitro cytotoxicity of ADC (CellTiter Glo), MCF-7. As to conditions: 0.1% O2, 168 hours, ADC DAR about 4. In kind it is cell-based. The procedure: as §1, §2, §3, §4, §5, §6, §7

As for `CC(=O)O[C@@]12CO[C@@H]1C[C@H](O)[C@@]1(C)C(=O)[C@H](O)C3=C(C)[C@@H](OC(=O)[C@H](O)[C@@H](NC(=O)OC(C)(C)C)c4ccccc4)C[C@@](O)([C@@H](OC(=O)c4ccccc4)[C@H]21)C3(C)C` [Doxetaxel], the “P(Vehicle VS Doxetaxel), body weight” value in series [1] was 0.0422. For the same molecule, in series [1] (nude mice), the “body weight of animals in the course of administration and treatment” value is reported as “significant weight loss”.

As usually defined, the pIC50 is the negative decadic logarithm of the IC50, by convention in mol/L. Consider `CC[C@H](C)[C@@H]([C@@H](CC(=O)N1CCC[C@H]1[C@H](OC)[C@@H](C)C(=O)N[C@H](C)[C@@H](O)c1ccccc1)OC)N(C)C(=O)[C@@H](NC(=O)[C@H](C(C)C)N(C)C(=O)OCc1ccc(OCc2cnc([N+](=O)[O-])n2C)c(NC(=O)CNCCCCCCN2C(=O)C=CC2=O)c1)C(C)C` [L01-MMAE], for which the pIC50 is 8.51 in series [2] (BT-474, read-out: IC50, cytotoxicity to BT-474 cells, O2 0.1%); 8.51 in series [2] (BT-474, read-out: IC50, cytotoxicity to BT-474 cells, O2 1.0%); 8.36 in series [2] (BT-474, read-out: IC50, cytotoxicity to BT-474 cells, O2 5.0%); 8.05 in series [2] (BT-474, read-out: IC50, cytotoxicity to BT-474 cells, O2 10.0%); 8.27 in series [2] (BT-474, read-out: IC50, cytotoxicity to BT-474 cells, O2 20.0%). Moreover, the “increase of activity under hypoxic condition compared with normoxic condition” value in series [2] (oxygen 0.1% versus 20%, BT-474) is roughly 2 times.

Turning to `CC[C@H](C)[C@@H]([C@@H](CC(=O)N1CCC[C@H]1[C@H](OC)[C@@H](C)C(=O)N[C@H](C)[C@@H](O)c1ccccc1)OC)N(C)C(=O)[C@@H](NC(=O)[C@@H](NC)C(C)C)C(C)C` [MMAE, monomethyl auristatin E] (H-[NMeV]V[Dil][Dolaproine]-X1), the pIC50 was 9.89 in series [3]; 9.27 in series [4]; 10.22 in series [5]; 9.64 in series [6]; 10.15 in series [7]; 8.42 in series [8].
